Laboratory results taken from patent US11352340B2, “Pyridine and pyridimine compounds as PI3K-gamma inhibitors” (Incyte Corporation, priority 2016, dated 2022).
Structures can show the parent of a compound that is named as a salt.

Tests used:
[1] = biological target: PI3Kγ (p110γ) Recombinant Human Protein (Homo sapiens (Human), UniProt P48736); assay: PI3K-γ Scintillation Proximity Assay; format: biochemical; settings: read-out: PI3K-gamma SPA IC50
Summary of the method: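 Recombinant human p110γ (13 nM) with 20 μM PIP2 and 2 μM ATP plus 0.5 μCi [γ-33P]ATP in 20 mM MOPS pH 6.7, 10 mM MgCl2, 5 mM DTT, 0.03% CHAPS, 2% DMSO, 120 min at room temperature. Product captured on WGA SPA beads and counted; IC50 fitted from % of solvent control versus log concentration.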

[2] = biological target: PI3Kδ (p110δ/p85α) Recombinant Human Protein (Homo sapiens (Human), UniProt O00329); assay: PI3Kδ Scintillation Proximity Assay; format: biochemical; settings: read-out: PI3K-delta SPA IC50
Summary of the method: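 Recombinant human p110δ/p85α (3.4 nM) with 20 μM PIP2 and 2 μM ATP plus [γ-33P]ATP, in 20 mM MOPS pH 6.7, 10 mM MgCl2, 5 mM DTT, 0.03% CHAPS, 2% DMSO; 120 min at room temperature. Product captured on WGA SPA beads, scintillation counted; IC50 from percent-of-control curves.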

PI3Kδ (p110δ/p85α) Recombinant Human Protein, sequence (O00329 whole entry): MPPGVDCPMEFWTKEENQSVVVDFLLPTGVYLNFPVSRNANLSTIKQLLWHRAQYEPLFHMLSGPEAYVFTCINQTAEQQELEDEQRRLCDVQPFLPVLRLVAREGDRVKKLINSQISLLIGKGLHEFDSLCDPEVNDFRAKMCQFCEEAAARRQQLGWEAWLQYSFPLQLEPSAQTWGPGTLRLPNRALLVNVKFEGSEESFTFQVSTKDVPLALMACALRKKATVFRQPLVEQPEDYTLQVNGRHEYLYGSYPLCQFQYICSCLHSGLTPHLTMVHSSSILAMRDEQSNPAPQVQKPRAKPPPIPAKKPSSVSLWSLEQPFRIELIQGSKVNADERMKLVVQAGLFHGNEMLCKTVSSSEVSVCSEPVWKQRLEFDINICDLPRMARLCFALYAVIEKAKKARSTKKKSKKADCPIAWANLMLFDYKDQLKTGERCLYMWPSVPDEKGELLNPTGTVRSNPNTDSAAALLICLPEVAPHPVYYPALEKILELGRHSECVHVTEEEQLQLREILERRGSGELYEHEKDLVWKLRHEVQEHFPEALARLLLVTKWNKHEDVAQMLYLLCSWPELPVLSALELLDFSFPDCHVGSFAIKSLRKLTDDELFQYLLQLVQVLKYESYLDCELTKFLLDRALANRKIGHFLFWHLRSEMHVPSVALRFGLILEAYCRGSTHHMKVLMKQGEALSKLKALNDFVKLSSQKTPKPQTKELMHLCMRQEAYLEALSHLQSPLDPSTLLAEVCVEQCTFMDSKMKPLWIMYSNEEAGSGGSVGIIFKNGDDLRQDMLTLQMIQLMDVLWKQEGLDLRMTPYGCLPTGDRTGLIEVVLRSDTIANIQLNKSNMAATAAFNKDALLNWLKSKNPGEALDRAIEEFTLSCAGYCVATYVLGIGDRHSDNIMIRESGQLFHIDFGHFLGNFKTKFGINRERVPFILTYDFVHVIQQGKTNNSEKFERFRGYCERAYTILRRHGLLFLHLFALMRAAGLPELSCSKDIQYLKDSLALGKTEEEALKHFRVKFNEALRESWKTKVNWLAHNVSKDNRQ
PI3Kδ (p110δ/p85α) Recombinant Human Protein, sequence (P27986 whole entry partner): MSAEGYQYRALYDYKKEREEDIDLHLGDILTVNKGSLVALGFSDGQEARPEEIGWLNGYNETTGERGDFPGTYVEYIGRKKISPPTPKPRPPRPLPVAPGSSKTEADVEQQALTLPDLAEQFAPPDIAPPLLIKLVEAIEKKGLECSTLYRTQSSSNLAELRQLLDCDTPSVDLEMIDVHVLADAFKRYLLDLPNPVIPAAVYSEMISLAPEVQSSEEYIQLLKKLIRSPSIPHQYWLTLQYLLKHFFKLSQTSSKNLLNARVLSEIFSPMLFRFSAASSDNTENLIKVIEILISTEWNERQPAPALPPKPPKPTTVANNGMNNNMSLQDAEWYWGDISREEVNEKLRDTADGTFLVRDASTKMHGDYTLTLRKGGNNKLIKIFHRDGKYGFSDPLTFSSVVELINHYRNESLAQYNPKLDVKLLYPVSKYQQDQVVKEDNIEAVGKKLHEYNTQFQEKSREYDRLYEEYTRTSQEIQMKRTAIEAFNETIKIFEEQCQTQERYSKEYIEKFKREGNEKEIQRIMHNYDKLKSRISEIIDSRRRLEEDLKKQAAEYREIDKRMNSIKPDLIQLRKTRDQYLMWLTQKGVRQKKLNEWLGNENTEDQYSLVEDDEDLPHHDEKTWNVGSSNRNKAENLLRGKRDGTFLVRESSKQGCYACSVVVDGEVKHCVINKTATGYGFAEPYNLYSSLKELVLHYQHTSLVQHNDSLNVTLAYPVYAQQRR
PI3Kγ (p110γ) Recombinant Human Protein, sequence (P48736 whole entry): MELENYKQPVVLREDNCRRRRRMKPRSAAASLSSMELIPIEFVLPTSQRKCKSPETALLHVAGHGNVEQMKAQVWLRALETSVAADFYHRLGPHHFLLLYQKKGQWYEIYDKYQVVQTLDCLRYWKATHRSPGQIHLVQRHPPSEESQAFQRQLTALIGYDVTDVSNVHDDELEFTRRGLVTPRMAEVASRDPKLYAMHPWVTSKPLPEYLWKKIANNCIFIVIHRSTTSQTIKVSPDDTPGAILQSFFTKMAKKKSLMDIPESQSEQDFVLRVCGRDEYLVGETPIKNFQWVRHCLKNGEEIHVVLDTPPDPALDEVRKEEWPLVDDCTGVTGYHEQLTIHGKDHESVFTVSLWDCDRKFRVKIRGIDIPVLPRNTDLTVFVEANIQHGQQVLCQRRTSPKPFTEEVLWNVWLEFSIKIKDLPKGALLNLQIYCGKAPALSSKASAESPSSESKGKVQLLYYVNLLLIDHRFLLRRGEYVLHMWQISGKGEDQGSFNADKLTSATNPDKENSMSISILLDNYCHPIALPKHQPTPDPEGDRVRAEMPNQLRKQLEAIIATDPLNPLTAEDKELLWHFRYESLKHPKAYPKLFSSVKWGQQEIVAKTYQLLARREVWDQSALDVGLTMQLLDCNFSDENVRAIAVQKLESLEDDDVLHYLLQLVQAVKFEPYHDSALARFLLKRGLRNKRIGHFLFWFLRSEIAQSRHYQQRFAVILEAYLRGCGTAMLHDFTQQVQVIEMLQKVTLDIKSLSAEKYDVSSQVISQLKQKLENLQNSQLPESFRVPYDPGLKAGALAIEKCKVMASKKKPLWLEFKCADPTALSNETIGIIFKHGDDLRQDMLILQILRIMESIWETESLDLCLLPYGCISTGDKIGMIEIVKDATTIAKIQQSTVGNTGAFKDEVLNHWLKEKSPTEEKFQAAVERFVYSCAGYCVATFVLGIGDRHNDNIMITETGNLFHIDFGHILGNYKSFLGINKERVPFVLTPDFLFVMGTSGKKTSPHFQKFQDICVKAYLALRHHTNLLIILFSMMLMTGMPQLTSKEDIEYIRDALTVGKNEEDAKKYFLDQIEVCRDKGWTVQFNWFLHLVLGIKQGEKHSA

IC50 [1] [nM] | IC50 [2] [nM] | Structure (SMILES)
> 500 | ≤ 500 | Cc1[nH]c(-c2cc(-c3cncc(N4CCOCC4)c3)ccn2)nc1CN[C@H]1CCOC1 [Example 286, (3S)-N-{[5-Methyl-2-(5-morpholin-4-yl-3,4′-bipyridin-2′-yl)-1H-imidazol-4-yl]methyl}tetrahydrofuran-3-amine]
> 500 | ≤ 500 | O=C(O)c1ccccc1Cn1cc(-c2ccnc(-c3ncc(-c4ccccc4)[nH]3)c2)cn1 [Example 33, 2-((4-(2-(5-Phenyl-1H-imidazol-2-yl)pyridin-4-yl)-1H-pyrazol-1-yl)methyl)benzoic acid trifluoroacetate salt]
≤ 500 | ≤ 500 | Cc1nc(-c2cc(-c3cncc(C(=O)NCC4CCOCC4)c3)ccn2)[nH]c1C [Example 162, 2′-(4,5-Dimethyl-1H-imidazol-2-yl)-N-((tetrahydro-2H-pyran-4-yl)methyl)-3,4′-bipyridine-5-carboxamide trifluoroacetate salt]
≤ 500 | ≤ 500 | Cc1[nH]c(-c2cc(-c3cncc(S(C)(=O)=O)c3)ccn2)nc1C(=O)N1CC[C@H](O)C1 [Example 246, (3S)-1-({5-Methyl-2-[5-(methylsulfonyl)-3,4′-bipyridin-2′-yl]-1H-imidazol-4-yl}carbonyl)pyrrolidin-3-ol]
> 500 | > 500 | COc1cncc(-c2ccnc(-c3nnc(C)[nH]3)c2)c1 [Example 73, 5-Methoxy-2′-(5-methyl-4H-1,2,4-triazol-3-yl)-3,4′-bipyridine]
≤ 100 | ≤ 500 | CCCN(C)C(=O)c1cncc(-c2ccnc(-c3nc(C)c(C)[nH]3)c2)c1 [Example 210, 2′-(4,5-Dimethyl-1H-imidazol-2-yl)-N-methyl-N-propyl-3,4′-bipyridine-5-carboxamide]
> 500 | > 500 | CN(C)C(=O)Cn1cc(-c2ccnc(-c3ncc(-c4ccccc4)[nH]3)c2)cn1 [Example 49, N,N-Dimethyl-2-(4-(2-(5-phenyl-1H-imidazol-2-yl)pyridin-4-yl)-1H-pyrazol-1-yl)acetamide trifluoroacetate salt]
> 500 | ≤ 500 | O=C(Nc1cncc(-c2ccnc(-c3ncc(-c4ccccc4)[nH]3)c2)c1)c1ccc(Cl)cc1 [Example 135, 4-Chloro-N-(2′-(5-phenyl-1H-imidazol-2-yl)-3,4′-bipyridin-5-yl)benzamide]
≤ 500 | ≤ 100 | Cc1nc(-c2cc(-c3cncc(C(=O)N4CCN(C(N)=O)CC4)c3)ccn2)[nH]c1C [Example 150, 4-(2′-(4,5-Dimethyl-1H-imidazol-2-yl)-3,4′-bipyridine-5-carbonyl)piperazine-1-carboxamide]
≤ 500 | ≤ 100 | Cc1[nH]c(-c2cc(-c3cncc(S(C)(=O)=O)c3)ccn2)nc1C(=O)N(C)C [Example 251, N,N,5-Trimethyl-2-[5-(methylsulfonyl)-3,4′-bipyridin-2′-yl]-1H-imidazole-4-carboxamide trifluoroacetate salt]
> 500 | > 500 | O=C(Nc1cncc(-c2ccnc(-c3ncc(-c4ccccc4)[nH]3)c2)c1)c1cccc(Cl)c1 [Example 134, 3-Chloro-N-(2′-(5-phenyl-1H-imidazol-2-yl)-3,4′-bipyridin-5-yl)benzamide]
> 500 | > 500 | O=C(CCn1cc(-c2ccnc(-c3ncc(-c4ccccc4)[nH]3)c2)cn1)NC1CCCC1 [Example 59, N-cyclopentyl-3-(4-(2-(5-phenyl-1H-imidazol-2-yl)pyridin-4-yl)-1H-pyrazol-1-yl)propanamide trifluoroacetate salt]
≤ 500 | ≤ 50 | COc1ccccc1Nc1nc(-c2cc(-c3cncc(N4CCOCC4)c3)ccn2)[nH]c1C [Example 307, N-(2-Methoxyphenyl)-5-methyl-2-(5-morpholin-4-yl-3,4′-bipyridin-2′-yl)-1H-imidazol-4-amine Trifluoroacetate Salt]
